Source: patent US20080214618A1, “Gastric Therapies Amd Compositions Therefor” (Auckland Uniservices Limited, priority 2004, published 2008)

Columns and labels:
[1] = test system: H. pylori; assay: Survival / MBC of H. pylori in standard incubations (40 min, 37° C., pH 7.4); format: cell-based, Helicobacter pylori; conditions: for effect on H. pylori viability of each ingredient by itself at low concentration: 0.3 mM FA C12:0, 0.05% Tween 20, 200 μg/ml lansoprazole, each alone
Protocol: FIG. 1 The survival of H. pylori in the presence of: FA C12:0 only (▴); FA C12:0 plus 100 μg/mL lansoprazole ([…]); FA C12:0 plus 200 μg/mL lansoprazole (▪); FA C12:0 plus 300 μg/mL lansoprazole (▾); FA C12:0 plus 400 μg/mL lansoprazole (♦); FA C12:0 plus 0.05% (w/w) Tween 20 (Δ); FA C12:0 plus 100 μg/mL lansoprazole plus 0.05% (w/w) Tween 20 (◯); FA C12:0 plus 200 μg/mL lansoprazole plus 0.05% (w/w) Tween 20 (□). Cells were incubated at pH 7.4 for 40 min at 37° C.
FIG. 2 The effect of lansoprazole on the survival of H. pylori in the presence of 0.05% Tween 20 (▴), and in its absence (Δ). Cells were incubated at pH 7.4 for 40 min at 37° C.
FIG. 4 The effect of monolaurin (MG C12) on survival of H. pylori in the absence (squares) and presence (diamonds) of Tween 80 (0.4%, w/v), after 40 min exposure at 37° C. and initial pH 7.4.
These can be selected from any one or more of capric acid, lauric acid, myristic acid, myristoleic acid, palmitoleic acid, linolenic acid, monolaurin or monomyristin for example. This list is not intended to be limiting. Reference can also be made to Table 1 of Sun et al FEMS Immun. Med. Microbiol. 36, 9-17, 2003 (the disclosure of which is included herein by way of reference). The MBC is the minimum concentration of agent(s) that result(s) in a 5 log units decrease in viable cell numbers.
The effects of combinations of lansoprazole (0-400 μg/mL), 0.05% Tween 20, and FA C12:0 (0.1-1.0 mM) on the viability of H. pylori were examined in standard incubations. The results are shown in FIG. 1, and the MBCs for FA C12:0, with different combinations of lansoprazole and Tween 20, are summarised in Table 1.
Experiments to Examine Possible Interactions Between Monolaurin (MG C12) and Tween 80. The concentration profile of monolaurin on the survival of H. pylori was tested in the presence and absence of 0.4% (w/v) Tween 80, and the results are shown in FIG. 4. MG C12 on its own, has little effect in the range 0-0.3 mM. However in the range 0.3-0.5 mM MG C12 there is a sharp increase in bactericidal potency, and the killing increased by >5 log units (FIG. 4, squares).

[2] = test system: Helicobacter pylori in mucus; assay: In vitro mucus/H. pylori test chamber model: survival of H. pylori in pig gastric mucus; format: cell-based, Helicobacter pylori (NCTC 11637)
Description: FIG. 3 Diagram of apparatus used to model the mucus layer in digestive tract. This test chamber was designed as an in vitro model to investigate the barrier effect of mucus in protecting H. pylori from agents present in the lumen of the stomach. […] The mucus layer (C2), contains H. pylori, with numbers of colony forming units as specified. It is held as a 1 mm thick disc between the test chamber base (B and C4) and a stainless steel mesh (A and C1). This was then inserted into a Falcon tube containing broth (D). • A. Screw top lid with a recessed top containing a stainless steel grid. • B. Base with recessed well 1 mm deep×10 mm diameter that contains mucus (shaded area—see C2) • C. Cross sectional view of chamber (A & B). 1—stainless steel mesh, 2=mucus, 3=screw top lid, 4=base • D. Chamber in a Falcon tube covered with Iso-sensitest broth (with or without additives). An H. pylori (NCTC 11637) culture was mixed with pig gastric mucus for 40 min, and then H. pylori colonies were re-isolated by dilution and plating. The re-isolated strain was used in the experiments below. PCR of the 16S rDNA piece and sequencing was used to confirm that the re-isolated bacterial strain was H. pylori. H. pylori was grown by plating on Columbia agar (Oxoid) with 5% horse serum (Fort Richard) at 37° C. for 48 h under microaerophilic conditions (80% nitrogen, 15% carbon dioxide, 5% oxygen). Two loops of 48 h agar plate culture were inoculated into pre-warmed (37° C.) Iso-sensitest broth (Oxoid) containing 5% horse serum and incubated for 24 h under microaerophilic conditions. This 24 h H. pylori broth culture (500 μL) was added to 3.5 g of thawed pre-warmed pig gastric mucus (previously frozen at −20° C.) and mixed. […] Final concentrations of surviving H. pylori colony forming units (cfu) were calculated per gram of mucus. […] Abbreviations used are: FA=0.1 or 0.2 mM lauric acid; TW=0.05% Tween 20; OM=0.58 mM omeprazole; NAC=0.245 M N-acetylcysteine. • (a) Calculated H. pylori cfu's initially added per gram of mucus. […]

Compound | effect on H. pylori viability of each ingredient by itself at low concentration [1] | MBC ([1]; Helicobacter pylori, 40 min, MBC of FA C12:0 in medium with the stated additions, 40 min incubation with H. pylori at 37° C. and pH 7.4, MBC = concentration giving 5 log units decrease in viable cells, read-out: MBC (minimal bactericidal concentration of FA C12:0)) [µM] | effect of FA on its own on H. pylori survival in mucus ([2]; 0.1 mM FA experiment) | H. pylori numbers (cfu per g mucus) using 0.1 mM FA ([2]; 0.1 mM lauric acid, TW=0.05% Tween 20, OM=0.58 mM omeprazole, NAC=0.245 M N-acetylcysteine, 40 min, 37° C., pH 7.0, broth-alone control 1.29 × 10^6) | H. pylori numbers (cfu per g mucus) using 0.2 mM FA ([2]; 0.2 mM lauric acid, TW=0.05% Tween 20, OM=0.58 mM omeprazole, NAC=0.245 M N-acetylcysteine, 40 min, 37° C., pH 7.0, broth-alone control 2.64 × 10^4) | killing of H. pylori ([1]; 0.5 mM monolaurin in the absence of Tween 80, 40 min, 37° C., initial pH 7.4) [logs] | killing of H. pylori ([1]; 0.5 mM monolaurin with 0.4% Tween 80 present, 40 min, 37° C., initial pH 7.4) [logs] | effect of MG C12 on its own on survival of H. pylori ([1]; range 0-0.3 mM MG C12, no Tween 80, 40 min, 37° C., initial pH 7.4) | increase in killing of H. pylori ([1]; range 0.3-0.5 mM MG C12 on its own, 40 min, 37° C., initial pH 7.4) [log units] | effect of lansoprazole by itself on H. pylori in vitro ([1]; concentrations below 400 μg/mL, Midolo et al observation, confirmed by FIG. 2 (pH 7.4, 40 min, 37° C.))
CCCCCCCCCCCC(=O)O [FA C12:0, lauric acid] | no effect | 1000 | minimal effect | 1.85 × 10^5 cfu per g mucus | 2.59 × 10^4 cfu per g mucus | – | – | – | – | –
CCCCCCCCCCCC(=O)OCC(O)CO (centres unmarked) [MG C12, monolaurin] | – | – | – | – | – | > 5 | 3 | little effect | > 5 | –
Cc1c(OCC(F)(F)F)ccnc1C[S+]([O-])c1nc2ccccc2[nH]1 (centres unmarked) [lansoprazole, reference compound] | no effect | – | – | – | – | – | – | – | – | little effect
